Experimental data: PubChem BioAssay (NCI)
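Where inhibition never reached the appropriate level, the endpoint shown equals the highest concentration tested. Otherwise, values were interpolated linearly from a five-concentration, 48-hour dose response in 96-well plates. Abbreviation: GI50, concentration required for 50% inhibition of growth. TGI: total growth inhibition.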

Columns and labels:
Experiment in all cases: NCI-60 cell line screen, 48 h
KM12 colon = tested on: KM12 colon
HOP-62 NSCLC = tested on: HOP-62 NSCLC
TK-10 renal = tested on: TK-10 renal
MALME-3M melanoma = tested on: MALME-3M melanoma
DU-145 prostate = tested on: DU-145 prostate
NCI-H460 lung = tested on: NCI-H460 lung
K-562 leukemia = tested on: K-562 leukemia
SK-MEL-28 melanoma = tested on: SK-MEL-28 melanoma
HCC-2998 colon = tested on: HCC-2998 colon
UO-31 renal = tested on: UO-31 renal

Structure (SMILES) | GI50 (KM12 colon) [µM] | TGI (KM12 colon) [µM] | GI50 (HOP-62 NSCLC) [µM] | TGI (HOP-62 NSCLC) [µM] | GI50 (TK-10 renal) [µM] | TGI (TK-10 renal) [µM] | GI50 (MALME-3M melanoma) [µM] | TGI (MALME-3M melanoma) [µM] | GI50 (DU-145 prostate) [µM] | TGI (DU-145 prostate) [µM] | GI50 (NCI-H460 lung) [µM] | TGI (NCI-H460 lung) [µM] | GI50 (K-562 leukemia) [µM] | TGI (K-562 leukemia) [µM] | GI50 (SK-MEL-28 melanoma) [µM] | TGI (SK-MEL-28 melanoma) [µM] | GI50 (HCC-2998 colon) [µM] | TGI (HCC-2998 colon) [µM] | TGI (UO-31 renal) [µM] | GI50 (UO-31 renal) [µM]
CC1SC(c2ccccc2)N(CCc2cccs2)C1=O (stereo unspecified) | 3.44 | 13.3 | 11 | 25.9 | 4.05 | 26 | 5.47 | 26.1 | 7.08 | 19.9 | 3.55 | 14.7 | 3.94 | > 100 | 4.96 | 17.9 | 4.4 | 16.4 | – | –
Cc1cccc2nc3c(C(=O)NCCN(C)C)cccc3cc12 | – | 9.47 | – | 4.88 | – | – | – | 2.78 | – | – | – | 4.18 | – | 8.22 | – | 3.62 | – | 5.36 | 5.44 | –
COc1ccc2nc(N/N=C/C(C)=N/Nc3cc(C)c4cc(OC)ccc4n3)cc(C)c2c1 | – | 44.1 | – | 50.5 | – | 69.4 | – | 76.4 | – | 34.8 | – | 32.5 | – | 9.81 | – | 74.5 | – | 47.1 | > 100 | –
O=C(N/N=C(/c1ccccc1)C(F)(F)F)c1ccncc1 | – | > 100 | – | > 100 | – | > 100 | – | > 100 | – | > 100 | – | > 100 | – | > 100 | – | > 100 | – | > 100 | > 100 | –
CCOC(=O)c1nc2ccc(Cl)cc2c2c1Cc1ccccc1-2 | – | > 100 | – | > 100 | – | > 100 | – | – | – | – | – | – | – | > 100 | – | > 100 | – | > 100 | > 100 | –
CCCc1[nH]c(SCCCCCCCCSc2nc(-c3ccc(F)cc3)c(CCC)[nH]2)nc1-c1ccc(F)cc1 | – | > 100 | – | > 100 | – | > 100 | – | – | – | – | – | > 100 | – | > 100 | – | > 100 | – | > 100 | > 100 | –
N=c1c2c(C(N)=O)cn(C3OC(CO)C(O)C3O)c2ncn1O (stereo unspecified) | – | 0.753 | – | 0.873 | – | 0.426 | – | 0.477 | – | 1.36 | – | > 20.4 | – | – | – | 2.3 | – | – | > 20.6 | –
N=C(N)c1ccc(-c2ccc(-c3cc(Cl)cc(Cl)c3)o2)nc1 | 1.85 | 3.44 | – | – | 1.87 | 3.5 | – | – | 1.87 | 3.37 | 1.9 | 3.63 | 1.5 | 3.88 | 1.8 | 3.59 | 1.92 | 3.8 | 3.11 | 1.54
COc1ccc2nc(-c3ccc(-c4noc(-c5cc(OC)c(OC)c(OC)c5)n4)cc3)[nH]c2c1 | 7.52 | 81.8 | 4.44 | 16.8 | 4.62 | 13 | 1.67 | 7.51 | 9.48 | 28.3 | 4.6 | 22.5 | 1.2 | > 100 | 9.59 | 27 | 35.5 | > 100 | 38.7 | 18.9
O=S(=O)(O)c1ccc2cccc(N=Nc3c(O)ccc4ccccc34)c2c1 | – | > 100 | – | > 100 | – | > 100 | – | > 100 | – | > 100 | – | > 100 | – | > 100 | – | – | – | > 100 | > 100 | –
CN(C)CC(=O)Nc1ccc(Cn2nnc3c2C(=O)c2nnn(Cc4ccc(NC(=O)CN(C)C)cc4)c2C3=O)cc1 | – | – | – | – | 2.86 | 7.58 | 0.115 | 0.266 | 0.175 | 0.337 | 0.167 | 1.2 | 0.293 | > 100 | – | – | 0.162 | 0.37 | – | –
